Target: T1, Recombinant human TLR7 (Homo sapiens, UniProt Q9NYK1)
T1 construct: expressed in transfected cells; host or cells: HEK293 cell line stably expressing the pNiFty2-SEAP reporter plasmid; TLR7 in pUNO vector, blasticidin selection
T1 sequence (Q9NYK1 27-1049): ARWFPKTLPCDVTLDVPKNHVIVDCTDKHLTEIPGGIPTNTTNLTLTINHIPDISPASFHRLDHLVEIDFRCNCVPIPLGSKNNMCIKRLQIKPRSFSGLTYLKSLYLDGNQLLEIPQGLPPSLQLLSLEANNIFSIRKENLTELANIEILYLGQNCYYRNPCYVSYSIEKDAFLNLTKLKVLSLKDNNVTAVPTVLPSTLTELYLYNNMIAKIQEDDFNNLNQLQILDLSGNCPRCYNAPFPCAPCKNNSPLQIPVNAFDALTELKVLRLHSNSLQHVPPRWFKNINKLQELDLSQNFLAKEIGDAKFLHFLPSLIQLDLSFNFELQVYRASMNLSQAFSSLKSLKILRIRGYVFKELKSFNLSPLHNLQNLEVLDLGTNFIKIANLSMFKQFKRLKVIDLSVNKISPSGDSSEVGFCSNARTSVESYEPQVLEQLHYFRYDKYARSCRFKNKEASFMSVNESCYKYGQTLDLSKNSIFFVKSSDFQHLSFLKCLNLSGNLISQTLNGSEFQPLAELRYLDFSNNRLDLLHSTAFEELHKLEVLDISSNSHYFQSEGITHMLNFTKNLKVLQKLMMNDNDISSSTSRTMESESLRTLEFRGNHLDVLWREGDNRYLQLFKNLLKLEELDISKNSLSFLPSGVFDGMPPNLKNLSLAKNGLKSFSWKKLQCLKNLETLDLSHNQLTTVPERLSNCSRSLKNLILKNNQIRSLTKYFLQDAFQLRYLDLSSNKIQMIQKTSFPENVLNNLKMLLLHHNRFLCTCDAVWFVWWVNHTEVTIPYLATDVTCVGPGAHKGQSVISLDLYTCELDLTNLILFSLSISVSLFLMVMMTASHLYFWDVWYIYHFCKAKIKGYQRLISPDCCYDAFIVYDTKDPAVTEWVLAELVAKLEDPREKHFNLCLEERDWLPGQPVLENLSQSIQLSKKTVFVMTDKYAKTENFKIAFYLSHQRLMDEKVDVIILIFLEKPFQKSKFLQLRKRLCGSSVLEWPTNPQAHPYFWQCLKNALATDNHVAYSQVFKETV
Assay: Human TLR7 assay (SEAP reporter in HEK293 cells)
Format: cell-based
Conditions: log of the minimal effective concentration of compound to induce SEAP release; HEK293 pNiFty2-SEAP reporter cell line, overnight incubation at 37° C., 0.1% (v/v) DMSO
Description: Recombinant human TLR7 was stably expressed in a HEK293 cell line already stably expressing the pNiFty2-SEAP reporter plasmid; integration of the reporter gene was maintained by selection with the antibiotic zeocin. The most common variant sequence of human TLR7 (represented by the EMBL sequence AF240467) was cloned into the mammalian cell expression vector pUNO and transfected into this reporter cell-line. Transfectants with stable expression were selected using the antibiotic blasticidin. In this reporter cell-line, expression of secreted alkaline phosphatase (SEAP) is controlled by an NFkB/ELAM-1 composite promoter comprising five NFkB sites combined with the proximal ELAM-1 promoter. TLR signaling leads to the translocation of NFkB and activation of the promoter results in expression of the SEAP gene. TLR7-specific activation was assessed by determining the level of SEAP produced following overnight incubation of the cells at 37° C. with the standard compound in the presence of 0.1% (v/v) dimethylsulfoxide (DMSO). Concentration dependent induction of SEAP production by compounds was expressed as the log of the minimal effective concentration of compound to induce SEAP release (pMEC).

## CCCCOc1nc(N)c2[nH]c(=O)n(CCCN(CCCN3CCOCC3)Cc3ccc(SC)cc3)c2n1 [Example 8, 6-Amino-2-butoxy-9-{3-[[4-(methylthio)benzyl] (3-morpholin-4-ylpropyl)amino]propyl}-7,9-dihydro-8H-purin-8-one]
  pMEC: 7.2

## CCCCOc1nc(N)c2[nH]c(=O)n(CCCN(CCCN3CCOCC3)Cc3cc(OC)cc(OC)c3)c2n1 [Example 12, 6-Amino-2-butoxy-9-{3-[(3,5-dimethoxybenzyl)(3-morpholin-4-ylpropyl)amino]propyl}-7,9-dihydro-8H-purin-8-one]
  pMEC: >7.7

## CCCCOc1nc(N)c2[nH]c(=O)n(CCCN(CCCN3CCOCC3)Cc3ccc(-n4cncn4)cc3)c2n1 [Example 16, 6-Amino-2-butoxy-9-(3-{(3-morpholin-4-ylpropyl)[4-(1H-1,2,4-triazol-1-yl)benzyl]amino}propyl)-7,9-dihydro-8H-purin-8-one]
  pMEC: 7.4

Source: patent US8067411B2, “Compounds” (AstraZeneca AB, priority 2006, dated 2011)
